Molecules are shown by their SMILES.

Series [1] relates to HCV replicon RNA (GenBank Accession No. AJ242654). In words: HCV Replicon Assay (replicon RNA reduction and/or Fluc reporter signal). The class given is cell-based, Hepatitis C virus. Particulars: Hepatitis C virus, 72 h, replicon-containing cells cultured with test compound for up to 3 days. The method in brief: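 Bicistronic replicon-containing cells cultured with compound for up to 3 days, with interferon as positive control. Inhibition quantified by replicon RNA reduction and/or Fluc reporter signal; IC50 values generally derived from replicon RNA reduction.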
In general terms: A replicon is a self-replicating genome or part of one, used to study replication in cells.

By melting point is commonly meant the temperature of the solid-liquid transition. Usually IC50 stands for the concentration that inhibits the measured activity by half. Lower therefore signals greater potency in that assay. Turning to `C[C@H](NS(=O)(=O)c1ccc(-c2c(C(N)=O)c3cc(C(F)(F)F)cnc3n2C2CCCC2)nc1)C(F)(F)F` [Cpd 409, 1-cyclopentyl-5-(trifluoromethyl)-2-(5-{[(2S)-1,1,1-trifluoropropan-2-yl]sulfamoyl}pyridin-2-yl)-1H-pyrrolo[2,3-b]pyridine-3-carboxamide], the melting point lay in the range of 261 to 263 °C. The same compound had an IC50 in series [1] of less than 0.5 µM.
Turning to `CCc1cnc2c(c1)c(C#N)c(-c1ccc(S(=O)(=O)N[C@@H](C)C(F)(F)F)cn1)n2-c1cnccn1` [Cpd 411, 6-[3-cyano-5-ethyl-1-(pyrazin-2-yl)-1H-pyrrolo[2,3-b]pyridin-2-yl]-N-[(2S)-1,1,1-trifluoropropan-2-yl]pyridine-3-sulfonamide], the melting point fell in the range of 195 to 200 °C. In addition, the IC50 in series [1] was less than 0.5 µM.
`CCc1cnc2c(c1)c(C#N)c(-c1ccc(S(=O)(=O)N[C@@H](C)C(F)(F)F)cn1)n2-c1cc(F)ccn1` [Cpd 412, 6-[3-cyano-5-ethyl-1-(4-fluoropyridin-2-yl)-1H-pyrrolo[2,3-b]pyridin-2-yl]-N-[(2S)-1,1,1-trifluoropropan-2-yl]pyridine-3-sulfonamide] had a melting point of 201 to 205 °C. In series [1], this compound gave a half-inhibitory concentration (IC50) of less than 0.5 µM.
Take `CCc1cnc2c(c1)c(C#N)c(-c1ccc(S(=O)(=O)N[C@@H](C)C(F)(F)F)cn1)n2-c1ccccc1` [Cpd 413, 6-(3-cyano-5-ethyl-1-phenyl-1H-pyrrolo[2,3-b]pyridin-2-yl)-N-[(2S)-1,1,1-trifluoropropan-2-yl]pyridine-3-sulfonamide]: the melting point lay in the range of 135 to 140 °C. Besides, the IC50 in series [1] is less than 0.5 µM.
On the same counts, the results for `CCc1cnc2c(c1)c(C#N)c(-c1ccc(S(=O)(=O)N[C@@H](C)C(F)(F)F)cn1)n2-c1ccccn1` [Cpd 414, 6-[3-cyano-5-ethyl-1-(pyridin-2-yl)-1H-pyrrolo[2,3-b]pyridin-2-yl]-N-[(2S)-1,1,1-trifluoropropan-2-yl]pyridine-3-sulfonamide] are 190 to 195 °C and less than 0.5 µM.
In the case of `C[C@H](NS(=O)(=O)c1ccc(-c2c(C#N)c3cc(C(F)(F)F)cnc3n2C2CCCCC2)nc1)C(F)(F)F` [Cpd 415, 6-[3-cyano-1-cyclohexyl-5-(trifluoromethyl)-1H-pyrrolo[2,3-b]pyridin-2-yl]-N-[(2S)-1,1,1-trifluoropropan-2-yl]pyridine-3-sulfonamide], the melting point was in the range of 204 to 206 °C. The compound also gave a half-inhibitory concentration (IC50) in series [1] of less than 0.5 µM.
Regarding `C[C@H](NS(=O)(=O)c1ccc(-c2c(C#N)c3cc(C(F)(F)F)cnc3n2C2CCCCC2)cc1)C(F)(F)F` [Cpd 416, 4-[3-cyano-1-cyclohexyl-5-(trifluoromethyl)-1H-pyrrolo[2,3-b]pyridin-2-yl]-N-[(2S)-1,1,1-trifluoropropan-2-yl]benzenesulfonamide], the melting point fell in the range of 190 to 192 °C. Also, in series [1], the IC50 was less than 0.5 µM.
In turn, `CC(C)(NS(=O)(=O)c1ccc(-c2c(C#N)c3cc(C(F)(F)F)cnc3n2C2CCCCC2)nc1)C(F)(F)F` [Cpd 417, 6-[3-cyano-1-cyclohexyl-5-(trifluoromethyl)-1H-pyrrolo[2,3-b]pyridin-2-yl]-N-(1,1,1-trifluoro-2-methylpropan-2-yl)pyridine-3-sulfonamide] came in with a melting point of 177 to 179 °C. For the same compound, the IC50 in series [1] was less than 0.5 µM.
Compound `CC(C)(NS(=O)(=O)c1ccc(-c2c(C#N)c3cc(C(F)(F)F)cnc3n2C2CCCCC2)cc1)C(F)(F)F` [Cpd 418, 4-[3-cyano-1-cyclohexyl-5-(trifluoromethyl)-1H-pyrrolo[2,3-b]pyridin-2-yl]-N-(1,1,1-trifluoro-2-methylpropan-2-yl)benzenesulfonamide] came in with a melting point of 203 to 205 °C. This compound had an IC50 in series [1] of less than 0.5 µM.
On to `N#Cc1c(-c2ccc(S(=O)(=O)NC3(C(F)(F)F)CC3)cn2)n(C2CCCCC2)c2ncc(C(F)(F)F)cc12` [Cpd 419, 6-[3-cyano-1-cyclohexyl-5-(trifluoromethyl)-1H-pyrrolo[2,3-b]pyridin-2-yl]-N-[1-(trifluoromethyl)cyclopropyl]pyridine-3-sulfonamide], for which the melting point is 192 to 193 °C. The same compound gave a concentration for half-maximal inhibition (IC50) in series [1] of less than 0.5 µM.
`N#Cc1c(-c2ccc(S(=O)(=O)NC3(C(F)(F)F)CC3)cc2)n(C2CCCCC2)c2ncc(C(F)(F)F)cc12` [Cpd 420, 4-[3-cyano-1-cyclohexyl-5-(trifluoromethyl)-1H-pyrrolo[2,3-b]pyridin-2-yl]-N-[1-(trifluoromethyl)cyclopropyl]benzenesulfonamide] returned a melting point of 195 to 197 °C. In addition, the IC50 in series [1] was less than 0.5 µM.
In turn, `CC1(NS(=O)(=O)c2ccc(-c3c(C#N)c4cc(C(F)(F)F)cnc4n3C3CCCCC3)cc2)CC1` [Cpd 421, 4-[3-cyano-1-cyclohexyl-5-(trifluoromethyl)-1H-pyrrolo[2,3-b]pyridin-2-yl]-N-(1-methylcyclopropyl)benzenesulfonamide] returned a melting point of 173 to 175 °C. Further, the half-inhibitory concentration (IC50) in series [1] is less than 0.5 µM.
Turning to `CC(C)(C)NS(=O)(=O)c1ccc(-c2c(C#N)c3cc(C(F)(F)F)cnc3n2C2CCCCC2)cc1` [Cpd 422, N-tert-butyl-4-[3-cyano-1-cyclohexyl-5-(trifluoromethyl)-1H-pyrrolo[2,3-b]pyridin-2-yl]benzenesulfonamide], the melting point was in the range of 176 to 178 °C. This compound also gave a half-inhibitory concentration (IC50) in series [1] of less than 0.5 µM.
For `C[C@@H](NS(=O)(=O)c1ccc(-c2c(C#N)c3cc(C(F)(F)F)cnc3n2C2CCCCC2)cc1)C(F)(F)F` [Cpd 423, 4-[3-cyano-1-cyclohexyl-5-(trifluoromethyl)-1H-pyrrolo[2,3-b]pyridin-2-yl]-N-[(2R)-1,1,1-trifluoropropan-2-yl]benzenesulfonamide], the melting point fell in the range of 185 to 187 °C. Also, the 50% inhibitory concentration (IC50) in series [1] was less than 0.5 µM.
Regarding `CC(C)(C)S(=O)(=O)Nc1ccc(-c2c(C#N)c3cc(C(F)(F)F)cnc3n2C2CCCCC2)cc1` [Cpd 424, N-{4-[3-cyano-1-cyclohexyl-5-(trifluoromethyl)-1H-pyrrolo[2,3-b]pyridin-2-yl]phenyl}-2-methylpropane-2-sulfonamide], the melting point lay in the range of 245 to 247 °C. This compound came in with a half-maximal inhibitory concentration (IC50) in series [1] of less than 0.5 µM.
For `CC(C)S(=O)(=O)Nc1ccc(-c2c(C#N)c3cc(C(F)(F)F)cnc3n2C2CCCCC2)cc1` [Cpd 425, N-{4-[3-cyano-1-cyclohexyl-5-(trifluoromethyl)-1H-pyrrolo[2,3-b]pyridin-2-yl]phenyl}propane-2-sulfonamide], the melting point was in the range of 228 to 230 °C. Also, the concentration for half-maximal inhibition (IC50) in series [1] is less than 0.5 µM.
The compound `CC1(S(=O)(=O)Nc2ccc(-c3c(C#N)c4cc(C(F)(F)F)cnc4n3C3CCCCC3)cc2)CC1` [Cpd 426, N-{4-[3-cyano-1-cyclohexyl-5-(trifluoromethyl)-1H-pyrrolo[2,3-b]pyridin-2-yl]phenyl}-1-methylcyclopropanesulfonamide] displayed a melting point of 255 to 256 °C. Also, the IC50 in series [1] was less than 0.5 µM.
`N#Cc1c(-c2ccc(NS(=O)(=O)C3CC3)cc2)n(C2CCCCC2)c2ncc(C(F)(F)F)cc12` [Cpd 427, N-{4-[3-cyano-1-cyclohexyl-5-(trifluoromethyl)-1H-pyrrolo[2,3-b]pyridin-2-yl]phenyl}cyclopropanesulfonamide] came in with a melting point of 225 to 227 °C. Moreover, in series [1], the half-inhibitory concentration (IC50) was less than 0.5 µM.
For `N#Cc1c(-c2ccc(NS(=O)(=O)C3CCC3)cc2)n(C2CCCCC2)c2ncc(C(F)(F)F)cc12` [Cpd 428, N-{4-[3-cyano-1-cyclohexyl-5-(trifluoromethyl)-1H-pyrrolo[2,3-b]pyridin-2-yl]phenyl}cyclobutanesulfonamide], the melting point lay in the range of 234 to 236 °C. Also, in series [1], the 50% inhibitory concentration (IC50) is less than 0.5 µM.
As for `C[C@H](NS(=O)(=O)c1ccc(-c2c(C#N)c3cc(Cl)cnc3n2-c2nccs2)nc1)C(F)(F)F` [Cpd 429, 6-[5-chloro-3-cyano-1-(1,3-thiazol-2-yl)-1H-pyrrolo[2,3-b]pyridin-2-yl]-N-[(2S)-1,1,1-trifluoropropan-2-yl]pyridine-3-sulfonamide], the melting point fell in the range of 181 to 183 °C. Besides, the IC50 in series [1] is less than 0.5 µM.
For `Cc1cnc2c(c1)c(C#N)c(-c1ccc(S(=O)(=O)N[C@@H](C)C(F)(F)F)cn1)n2-c1cncs1` [Cpd 430, 6-[3-cyano-5-methyl-1-(1,3-thiazol-5-yl)-1H-pyrrolo[2,3-b]pyridin-2-yl]-N-[(2S)-1,1,1-trifluoropropan-2-yl]pyridine-3-sulfonamide], in that order: 176 to 178 °C and less than 0.5 µM.
Turning to `Cc1cnc2c(c1)c(C#N)c(-c1ccc(S(=O)(=O)N[C@@H](C)C(F)(F)F)cn1)n2-c1ccncn1` [Cpd 431, 6-[3-cyano-5-methyl-1-(pyrimidin-4-yl)-1H-pyrrolo[2,3-b]pyridin-2-yl]-N-[(2S)-1,1,1-trifluoropropan-2-yl]pyridine-3-sulfonamide], the melting point lay within 233 to 235 °C. In series [1], this compound registered an IC50 of less than 0.5 µM.
For `Cc1cnc2c(c1)c(C#N)c(-c1ccc(S(=O)(=O)N[C@@H](C)C(F)(F)F)cn1)n2-c1ccc(F)cn1` [Cpd 432, 6-[3-cyano-1-(5-fluoropyridin-2-yl)-5-methyl-1H-pyrrolo[2,3-b]pyridin-2-yl]-N-[(2S)-1,1,1-trifluoropropan-2-yl]pyridine-3-sulfonamide], in that order: 199 to 200 °C and less than 0.5 µM.
The compound `Cc1cnc2c(c1)c(C#N)c(-c1ccc(S(=O)(=O)N[C@@H](C)C(F)(F)F)cn1)n2-c1cc(C(F)(F)F)ccn1` [Cpd 433, 6-{3-cyano-5-methyl-1-[4-(trifluoromethyl)pyridin-2-yl]-1H-pyrrolo[2,3-b]pyridin-2-yl}-N-[(2S)-1,1,1-trifluoropropan-2-yl]pyridine-3-sulfonamide] returned a melting point of 192 to 194 °C. Further, the half-inhibitory concentration (IC50) in series [1] is less than 0.5 µM.
With `Cc1cnc2c(c1)c(C#N)c(-c1ccc(S(=O)(=O)N[C@@H](C)C(F)(F)F)cn1)n2-c1cc(N)ccn1` [Cpd 434, 6-[1-(4-aminopyridin-2-yl)-3-cyano-5-methyl-1H-pyrrolo[2,3-b]pyridin-2-yl]-N-[(2S)-1,1,1-trifluoropropan-2-yl]pyridine-3-sulfonamide], the melting point fell in the range of 202 to 203 °C. In series [1], this compound came in with a 50% inhibitory concentration (IC50) of 2 to 5 µM.

Source of the values: patent US9593108B2, “Compounds and methods for antiviral treatment” (PTC Therapeutics, Inc., priority 2009, dated 2017).
